Measurements from patent US12617762B2, “Carboxy derivatives with antiinflamatory properties” (Sitryx Therapeutics Limited, priority 2019, dated 2026).
Where two headings read alike, the source gives them in different places.

Experiments:
[1] = test system: NRF2 (nuclear factor erythroid 2-related factor 2); assay: NRF2 +/-GSH activation assay (DiscoverX PathHunter NRF2 translocation kit, U2OS cells); assay type: cell-based
Summary of the method: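 U2OS PathHunter eXpress cells, 24 h post-plating, treated with compound ±GSH (+GSH arm: 30 min compound–GSH pre-incubation, 6 mM working GSH), then 6 h at 37 °C. NRF2 nuclear translocation read by enzyme-fragment-complementation chemiluminescence; % activation normalised to DMF high and untreated low controls.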

[2] = Hepatocyte stability assay, mouse; assay type: in vitro ADME; conditions: mouse, hepatocytes; for hepatocyte CLint at 10 μM: Hepatocyte stability Clint; for half-life at 10 μM: Hepatocyte stability T½
Summary of the method: (§1)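 Cells and buffer-only plates are preincubated 10 min at 37° C; 10 μM test compound is then added to hepatocytes (0.5×10^6 cells/mL) and sampled to 60 min. Aliquots are crashed into acetonitrile, spun, and measured by LC-MS/MS to calculate intrinsic clearance from the decline of parent.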

[3] = Hepatocyte stability assay, human; assay type: in vitro ADME; conditions: human, hepatocytes; for hepatocyte CLint at 10 μM: Hepatocyte stability Clint; for half-life at 10 μM: Hepatocyte stability T½
Summary of the method: as §1

[4] = test system: IL-1β cytokine output from THP-1s; assay: THP-1 AlphaLISA IL-1β cytokine inhibition assay; assay type: cell-based; conditions: for IC50: Homo sapiens; for IL-1β lowering, result in words: THP-1 IL-1β assay
Summary of the method: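 THP-1 cells differentiated with PMA for 72 h, pre-incubated with compound 30 min, then LPS-primed 24 h and Nigericin-stimulated 1 h (37° C./5% CO2). Supernatant IL-1β measured by AlphaLISA; percentage inhibition normalised to +LPS (high) and −LPS (low) plate controls.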

[5] = +GSH, 30 minute compound-GSH pre-incubation, read-out: NRF2 activation +GSH EC50
[6] = +GSH, normalised to DMF high control
[7] = −GSH, U2OS PathHunter cells, 6 hours compound treatment, read-out: NRF2 activation −GSH EC50
[8] = −GSH, normalised to DMF high control
[9] = THP-1, differentiated THP-1 cells, LPS then nigericin

| SMILES | EC50 [1, 5] | NRF2 activation +GSH Emax [1, 6] | EC50 [1, 7] | NRF2 activation −GSH Emax [1, 8] | hepatocyte CLint at 10 μM [2] | half-life at 10 μM [2] | hepatocyte CLint at 10 μM [3] | half-life at 10 μM [3] | IC50 [4, 9] | IL-1β lowering, result in words [4] | EC50 ([1]; −GSH, Table 5 exo vs endo comparison, read-out: −GSH EC50) | −GSH Emax ([1]; −GSH, normalised to DMF high control, Table 5 exo vs endo comparison) | IC50 ([4]; THP-1, Table 3, head to head comparison of exo vs endo double bond compounds) |
| --- | --- | --- | --- | --- | --- | --- | --- | --- | --- | --- | --- | --- | --- |
| C=C(Cc1nc(CCCCCCC(C)(F)F)no1)C(=O)O [Example 31, 2-((3-(7,7-difluorooctyl)-1,2,4-oxadiazol-5-yl)methyl)acrylic acid] | 40.9 µM | 127% | 35 µM | 178% | 42 µL/min/1e6 cells | 27 min | 5 µL/min/1e6 cells | 246 min | > 100 µM | not effective | – | – | – |
| [2H]C([2H])([2H])C([2H])([2H])C([2H])([2H])C([2H])([2H])C([2H])([2H])C([2H])([2H])C([2H])([2H])C([2H])([2H])c1noc(CC(=C)C(=O)O)n1 [Example 34, 2-((3-(octyl-d17)-1,2,4-oxadiazol-5-yl)methyl)acrylic acid] | 4.7 µM | 167% | 3.7 µM | 222% | 374 µL/min/1e6 cells | 4 min | 78 µL/min/1e6 cells | 18 min | 9.5 µM | – | – | – | – |
| C=C(Cc1nc(CCc2ccc(CCC)cc2)no1)C(=O)O [Example 36, 2-((3-(4-propylphenethyl)-1,2,4-oxadiazol-5-yl)methyl)acrylic acid] | 14.2 µM | 181% | 10.1 µM | 216% | 249 µL/min/1e6 cells | 7 min | 23 µL/min/1e6 cells | 61 min | 37.5 µM | – | – | – | – |
| C=C(Cc1nnc(CCCCCCCC)s1)C(=O)O [Example 37, 2-((5-octyl-1,3,4-thiadiazol-2-yl)methyl)acrylic acid] | 9.5 µM | 139% | 8.4 µM | 162% | > 481 µL/min/1e6 cells | < 3 min | 32 µL/min/1e6 cells | 40 min | 14.6 µM | – | – | – | – |
| C=C(Cc1nc(CCCCCCCC)co1)C(=O)O [Example 39, 2-((4-octyloxazol-2-yl)methyl)acrylic acid] | 7.6 µM | 172% | 5.1 µM | 234% | > 460 µL/min/1e6 cells | < 3 min | 386 µL/min/1e6 cells | 3 min | 8.5 µM | – | – | – | – |
| C=C(Cc1nc(Cc2ccc(C(F)(F)F)cc2)no1)C(=O)O [Example 42, 2-((3-(4-(trifluoromethyl)benzyl)-1,2,4-oxadiazol-5-yl)methyl)acrylic acid] | > 100 µM | 8% | > 100 µM | 63% | 11 µL/min/1e6 cells | 118 min | < 3 µL/min/1e6 cells | > 460 min | 27 µM | – | – | – | – |
| C=C(Cc1nc(C2(c3ccc(OC)cc3)CC2)no1)C(=O)O [Example 45, 2-((3-(1-(4-methoxyphenyl)cyclopropyl)-1,2,4-oxadiazol-5-yl)methyl)acrylic acid] | > 100 µM | 9% | > 100 µM | 55% | 33 µL/min/1e6 cells | 49 min | 8 µL/min/1e6 cells | 178 min | 38.8 µM | – | – | – | – |
| C=C(Cc1nc(Cc2ccc(OC(F)(F)F)cc2)no1)C(=O)O [Example 46, 2-((3-(4-(trifluoromethoxy)benzyl)-1,2,4-oxadiazol-5-yl)methyl)acrylic acid] | 36.2 µM | 51% | 31.1 µM | 106% | 17 µL/min/1e6 cells | 76 min | < 3 µL/min/1e6 cells | > 447 min | 41.9 µM | – | – | – | – |
| C=C(Cc1nc(C2(c3ccc(OC(F)(F)F)cc3)CC2)no1)C(=O)O [Example 49, 2-((3-(1-(4-(trifluoromethoxy)phenyl)cyclopropyl)-1,2,4-oxadiazol-5-yl)methyl)acrylic acid] | 57.5 µM | 56% | 49.2 µM | 109% | 15 µL/min/1e6 cells | 86 min | 8 µL/min/1e6 cells | 172 min | 12.4 µM | – | – | – | – |
| C=C(Cc1nc(C2CCCCCCC2)no1)C(=O)O [Example 63, 2-((3-cyclooctyl-1,2,4-oxadiazol-5-yl)methyl)acrylic acid] | 58 µM | 49% | 25.8 µM | 114% | 23 µL/min/1e6 cells | 60 min | 8 µL/min/1e6 cells | 169 min | > 100 µM | not effective | – | – | – |
| C=C(Cc1nc(C(F)(F)c2ccc(OC(F)(F)F)cc2)no1)C(=O)O [Example 94, 2-((3-(difluoro(4-(trifluoromethoxy)phenyl)methyl)-1,2,4-oxadiazol-5-yl)methyl)acrylic acid] | 13.8 µM | 183% | 7.9 µM | 208% | 29 µL/min/1e6 cells | 66 min | < 3 µL/min/1e6 cells | > 460 min | 20.5 µM | – | – | – | – |
| C=C(Cc1nc(C2(c3cc(Cl)c(F)c(Cl)c3)CC2)no1)C(=O)O [Example 133, 2-((3-(1-(3,5-dichloro-4-fluorophenyl)cyclopropyl)-1,2,4-oxadiazol-5-yl)methyl)acrylic acid] | 4.2 µM | 281% | 3.5 µM | 234% | 338 µL/min/1e6 cells | 4 min | 73 µL/min/1e6 cells | 19 min | 1.6 µM | – | – | – | – |
| C=C(Cc1nc(-c2ccc(OCCCC(F)(F)F)cc2)no1)C(=O)O [Example 146, 2-((3-(4-(4,4,4-trifluorobutoxy)phenyl)-1,2,4-oxadiazol-5-yl)methyl)acrylic acid] | 14.6 µM | 125% | 13.1 µM | 177% | 194 µL/min/1e6 cells | 8 min | 36 µL/min/1e6 cells | 41 min | > 31.6 µM | – | – | – | – |
| CCCCOc1ccc(-c2noc(/C=C(\C)C(=O)O)n2)cc1 [Example 167] | > 100 µM | 15% | > 100 µM | 100% | 331 µL/min/1e6 cells | 6 min | 35 µL/min/1e6 cells | 35 min | > 100 µM | – | > 100 µM | 100% | > 100 µM |
